Key:
[1] = test system: sections of the saphenous vein; assay: Effect on sections of the saphenous vein; design: species or system dogs; conditions: same doses as in the basilar artery test
[2] = test system: annular sections of the coronary artery; assay: Effect on annular sections of the coronary artery; design: species or system dogs; conditions: same doses as in the basilar artery test
[3] = test system: annular sections of the basilar artery of dogs; assay: In vitro vasoconstrictive activity in the basilar artery of dogs; conditions: dog basilar artery, endothelium removed
Protocol: Experiments are carried out on annular sections of the basilar artery of dogs from which the endothelium has been removed and which are placed in an organ chamber enabling the measurement of isometric contractions in the presence or absence of ketanserin.

CNS(=O)(=O)Cc1ccc2cccc(CCN(C)C)c2c1 [Example 1, 2-{1-[2-(Dimethylamino)ethyl]naphth-7-yl}-N-methyl-methanesulphonamide] was tested, and the “effect on sections of the saphenous vein” value [1] was “does not show any significant effect”, the “effect on annular sections of the coronary artery” value [2] was “does not show any significant effect” and the EC50 ([3]; isometric contractions, read-out: EC50, contraction of basilar artery sections) was about 1000 nM.
In the case of NCCc1c[nH]c2ccc(O)cc12 [serotonin, reference compound], the “induction of contractions in arterial sections” value [3] is reported as “capable of inducing contractions”.

Reference: patent US5332759A, “Naphthalene amides and sulphonamides, processes for their preparation and pharmaceutical compositions containing them” (Adir et Compagnie, priority 1992, dated 1994)
